Assay results published in patent US20250171437A1 (Agios Pharmaceuticals,Inc., priority 2022, published 2025).

biological target: T1, human PAH with the R408W mutation (A375 R408W cells) (Homo sapiens, UniProt P00439, R408W); assay: Cell Based Phenylalanine Flux Assay; details: A375 R408W cells; 24 hrs with compound, then 20 μM sepiapterin and 800 μM 13C9,15N-Phenylalanine for 4 hours; 13C-Tyrosine by LC-MS; average where tested multiple times
T1 construct: expressed in transfected cells
T1 sequence (P00439 1-452 R408W): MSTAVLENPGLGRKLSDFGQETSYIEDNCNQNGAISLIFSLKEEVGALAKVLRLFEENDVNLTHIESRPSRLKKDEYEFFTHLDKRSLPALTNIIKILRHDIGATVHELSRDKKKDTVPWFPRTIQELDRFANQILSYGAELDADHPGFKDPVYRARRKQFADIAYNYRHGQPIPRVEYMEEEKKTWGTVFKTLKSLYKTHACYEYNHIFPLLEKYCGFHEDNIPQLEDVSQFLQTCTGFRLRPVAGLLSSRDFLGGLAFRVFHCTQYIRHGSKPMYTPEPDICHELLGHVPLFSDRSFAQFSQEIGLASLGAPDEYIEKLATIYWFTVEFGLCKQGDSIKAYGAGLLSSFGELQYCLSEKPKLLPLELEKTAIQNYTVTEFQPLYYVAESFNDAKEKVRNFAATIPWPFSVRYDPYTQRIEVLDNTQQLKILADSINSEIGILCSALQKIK
Method in brief: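 A375 cells stably expressing human PAH R408W treated 24 h at 37° C with a 10-point 2-fold dose curve in duplicate, 0.5% DMSO. Then 20 μM sepiapterin and 800 μM 13C9,15N-Phe added for 4 h; 13C-Tyr in media measured by LC-MS to give AC50.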

Row | SMILES | AC50 [nM]
1 | O=C(c1ocnc1CF)N1CCc2[nH]cnc2[C@H]1c1nc2cc(F)ccc2o1 [Example 179, (S)-(4-(5-fluorobenzo[d]oxazol-2-yl)-6,7-dihydro-1H-imidazo[4,5-c]pyridin-5(4H)-yl)(4-(fluoromethyl)oxazol-5-yl)methanone] | 500 to 1000
2 | Cc1cc(F)ccc1-c1nnc(C(=O)N2CCc3[nH]cnc3[C@@H]2c2nc3cc(F)ccc3o2)o1 [Example 78, (R)-(5-(4-fluoro-2-methylphenyl)-1,3,4-oxadiazol-2-yl)(4-(5-fluorobenzo[d]oxazol-2-yl)-6,7-dihydro-1H-imidazo[4,5-c]pyridin-5(4H)-yl)methanone] | 1000 to 5000
3 | O=C(c1oc(C2CC2)nc1C(F)F)N1CCc2[nH]cnc2[C@H]1c1nc2cc(F)ccc2o1 [Example 53, (S)-(2-cyclopropyl-4-(difluoromethyl)oxazol-5-yl)(4-(5-fluorobenzo[d]oxazol-2-yl)-6,7-dihydro-1H-imidazo[4,5-c]pyridin-5(4H)-yl)methanone] | ≤ 500
4 | Cc1ccc2oc([C@H]3c4nc[nH]c4CCN3C(=O)c3oc(C(C)(C)O)nc3C(F)F)nc2c1 [Example 312, (R)-(4-(difluoromethyl)-2-(2-hydroxypropan-2-yl)oxazol-5-yl)(4-(5-methylbenzo[d]oxazol-2-yl)-6,7-dihydro-1H-imidazo[4,5-c]pyridin-5(4H)-yl)methanone] | 500 to 1000
5 | CC(C)(O)c1nc(C(F)F)c(C(=O)N2CCc3[nH]cnc3[C@@H]2c2nc3cc(OC(F)(F)F)ccc3o2)o1 [Example 352, (R)-(4-(difluoromethyl)-2-(2-hydroxypropan-2-yl)oxazol-5-yl)(4-(5-(trifluoromethoxy)benzo[d]oxazol-2-yl)-6,7-dihydro-1H-imidazo[4,5-c]pyridin-5(4H)-yl)methanone] | 500 to 1000
6 | O=C(c1ocnc1C(F)F)N1CCc2[nH]cnc2[C@H]1c1nc2c(F)cc(F)cc2o1 [Example 301, (S)-(4-(4,6-difluorobenzo[d]oxazol-2-yl)-6,7-dihydro-1H-imidazo[4,5-c]pyridin-5(4H)-yl)(4-(difluoromethyl)oxazol-5-yl)methanone] | ≤ 500
7 | O=C(c1cnn(CC(F)(F)F)c1C(F)F)N1CCc2[nH]cnc2[C@H]1c1nc2cc(F)ccc2o1 [Example 183, (S)-(5-(difluoromethyl)-1-(2,2,2-trifluoroethyl)-1H-pyrazol-4-yl)(4-(5-fluorobenzo[d]oxazol-2-yl)-6,7-dihydro-1H-imidazo[4,5-c]pyridin-5(4H)-yl)methanone] | 500 to 1000
8 | O=C(c1oc(C2(O)CCC2)nc1C(F)F)N1CCc2[nH]cnc2[C@@H]1c1nc2cc(F)ccc2o1 [Example 690, (R)-(4-(difluoromethyl)-2-(1-hydroxycyclobutyl)oxazol-5-yl)(4-(5-fluorobenzo[d]oxazol-2-yl)-6,7-dihydro-1H-imidazo[4,5-c]pyridin-5(4H)-yl)methanone] | 1000 to 5000
9 | CC(O)c1nc(Br)c(C(=O)N2CCc3[nH]cnc3[C@@H]2c2nc3cc(F)ccc3o2)o1 (single isomer, unassigned) [Example 224] | 1000 to 5000
10 | COc1ccc2oc([C@H]3c4nc[nH]c4CCN3C(=O)c3nnc(-c4ccccn4)o3)nc2c1 [Example 556, (R)-(4-(5-methoxybenzo[d]oxazol-2-yl)-6,7-dihydro-1H-imidazo[4,5-c]pyridin-5(4H)-yl)(5-(pyridin-2-yl)-1,3,4-oxadiazol-2-yl)methanone] | 1000 to 5000
11 | COc1ccc2c(C(=O)N3CCc4[nH]cnc4[C@H]3c3nc4c(F)cccc4o3)cnn2c1 [Example 539, (S)-(4-(4-fluorobenzo[d]oxazol-2-yl)-6,7-dihydro-1H-imidazo[4,5-c]pyridin-5(4H)-yl)(6-methoxypyrazolo[1,5-a]pyridin-3-yl)methanone] | ≤ 500
12 | COc1ccc2c(C(=O)N3CCc4[nH]cnc4[C@@H]3c3nc4cc(F)ccc4o3)cnn2c1 [Example 74, (R)-(4-(5-fluorobenzo[d]oxazol-2-yl)-6,7-dihydro-1H-imidazo[4,5-c]pyridin-5(4H)-yl)(6-methoxypyrazolo[1,5-a]pyridin-3-yl)methanone] | ≥ 5000
13 | Cc1nc([C@@H](C)O)oc1C(=O)N1CCc2[nH]cnc2[C@H]1c1nc2cc(F)ccc2o1 [Example 135, ((S)-4-(5-fluorobenzo[d]oxazol-2-yl)-6,7-dihydro-1H-imidazo[4,5-c]pyridin-5(4H)-yl)(2-((R)-1-hydroxyethyl)-4-methyloxazol-5-yl)methanone] | 1000 to 5000
14 | O=C(c1oc(C2(O)CCC2)nc1C(F)(F)F)N1CCc2[nH]cnc2[C@@H]1c1nc2cc(F)ccc2o1 [Example 586, (R)-(4-(5-fluorobenzo[d]oxazol-2-yl)-6,7-dihydro-1H-imidazo[4,5-c]pyridin-5(4H)-yl)(2-(1-hydroxycyclobutyl)-4-(trifluoromethyl)oxazol-5-yl)methanone] | 1000 to 5000
15 | O=C(c1ccnn1C(F)(F)F)N1CCc2[nH]cnc2[C@@H]1c1nc2cccc(F)c2o1 [Example 290, (R)-(4-(7-fluorobenzo[d]oxazol-2-yl)-6,7-dihydro-1H-imidazo[4,5-c]pyridin-5(4H)-yl)(1-(trifluoromethyl)-1H-pyrazol-5-yl)methanone] | 1000 to 5000
16 | O=C(c1ccnn1C1CC1)N1CCc2[nH]cnc2[C@H]1c1nc2ccccc2o1 [Example 725, (S)-(4-(benzo[d]oxazol-2-yl)-6,7-dihydro-1H-imidazo[4,5-c]pyridin-5(4H)-yl)(1-cyclopropyl-1H-pyrazol-5-yl)methanone] | ≤ 500
17 | Cc1nc(C(=O)N2CCc3[nH]cnc3[C@@H]2c2nc3cccc(C)c3o2)n(C)n1 [Example 908, (R)-(1,3-dimethyl-1H-1,2,4-triazol-5-yl)(4-(7-methylbenzo[d]oxazol-2-yl)-6,7-dihydro-1H-imidazo[4,5-c]pyridin-5(4H)-yl)methanone] | 1000 to 5000
18 | O=C(c1nnc(-c2cnn(C3CCC3)c2)o1)N1CCc2[nH]cnc2[C@@H]1c1nc2c(F)ccc(F)c2o1 [Example 812, (R)-(5-(1-cyclobutyl-1H-pyrazol-4-yl)-1,3,4-oxadiazol-2-yl)(4-(4,7-difluorobenzo[d]oxazol-2-yl)-6,7-dihydro-1H-imidazo[4,5-c]pyridin-5(4H)-yl)methanone] | 500 to 1000
19 | CN1CCN(c2ccc3c(C(=O)N4CCc5[nH]cnc5[C@@H]4c4nc5cc(F)ccc5o4)cnn3c2)CC1(C)C [Example 140, (R)-(4-(5-fluorobenzo[d]oxazol-2-yl)-6,7-dihydro-1H-imidazo[4,5-c]pyridin-5(4H)-yl)(6-(3,3,4-trimethylpiperazin-1-yl)pyrazolo[1,5-a]pyridin-3-yl)methanone] | ≥ 5000
20 | Cc1ccc2nc([C@H]3c4nc[nH]c4CCN3C(=O)c3oc(C(C)(C)O)nc3C)oc2c1 [Example 320, (R)-(2-(2-hydroxypropan-2-yl)-4-methyloxazol-5-yl)(4-(6-methylbenzo[d]oxazol-2-yl)-6,7-dihydro-1H-imidazo[4,5-c]pyridin-5(4H)-yl)methanone] | ≥ 5000
21 | COc1ccc2oc([C@H]3c4nc[nH]c4CCN3C(=O)c3oc(C(C)(C)O)nc3C(F)F)nc2c1 [Example 340, (R)-(4-(difluoromethyl)-2-(2-hydroxypropan-2-yl)oxazol-5-yl)(4-(5-methoxybenzo[d]oxazol-2-yl)-6,7-dihydro-1H-imidazo[4,5-c]pyridin-5(4H)-yl)methanone] | 1000 to 5000
22 | Cc1cc(F)c2oc([C@H]3c4nc[nH]c4CCN3C(=O)c3oc(C(C)(C)O)nc3C(F)F)nc2c1 [Example 500, (R)-(4-(difluoromethyl)-2-(2-hydroxypropan-2-yl)oxazol-5-yl)(4-(7-fluoro-5-methylbenzo[d]oxazol-2-yl)-6,7-dihydro-1H-imidazo[4,5-c]pyridin-5(4H)-yl)methanone] | ≤ 500
23 | COc1cccc2oc([C@H]3c4nc[nH]c4CCN3C(=O)c3oc(C(C)(C)O)nc3C(F)F)nc12 [Example 428, (R)-(4-(difluoromethyl)-2-(2-hydroxypropan-2-yl)oxazol-5-yl)(4-(4-methoxybenzo[d]oxazol-2-yl)-6,7-dihydro-1H-imidazo[4,5-c]pyridin-5(4H)-yl)methanone] | 1000 to 5000
24 | Cc1nc(C(=O)N2CCc3[nH]cnc3[C@@H]2c2nc3cccc(F)c3o2)n(C)n1 [Example 496, (R)-(1,3-dimethyl-1H-1,2,4-triazol-5-yl)(4-(7-fluorobenzo[d]oxazol-2-yl)-6,7-dihydro-1H-imidazo[4,5-c]pyridin-5(4H)-yl)methanone] | 1000 to 5000

same assay, conditions: A375 cells expressing R408W PAH; 24 hrs with compound, then 20 μM sepiapterin and 800 μM 13C9,15N-Phenylalanine for 4 hours; 13C-Tyrosine by LC-MS; average where tested multiple times

Row | SMILES | AC50 [nM]
25 | O=C(c1cnn2cc(N3CCC(O)CC3)ccc12)N1CCc2[nH]cnc2C1c1nc2c(F)cccc2o1 (stereo not drawn) | ≥ 5000
26 | COc1ccc2oc(C3c4nc[nH]c4CCN3C(=O)c3cnco3)nc2c1 (stereo not drawn) | ≥ 5000
27 | Cc1nc(N2CCC(F)CC2)oc1C(=O)N1CCc2[nH]cnc2C1c1nc2cc(F)ccc2o1 (stereo not drawn) | 1000 to 5000
28 | Cn1nc(C(C)(C)O)cc1C(=O)N1CCc2[nH]cnc2C1c1nc2cc(F)ccc2o1 (stereo not drawn) | ≥ 5000
29 | CN1C2CCC1CN(c1ccc3c(C(=O)N4CCc5[nH]cnc5C4c4nc5cc(F)ccc5o4)cnn3c1)C2 (single isomer, unassigned) | ≥ 5000
30 | O=C(c1cnco1)N1CCc2[nH]cnc2C1c1nc2c(F)cccc2o1 (stereo not drawn) | ≥ 5000
